Consider 5 compounds from patent US11000033B2, “Ketone or oxime compound, and herbicide” (NISSAN CHEMICAL CORPORATION, priority 2014, dated 2021).

What all share (format): in vivo
The subject of data set [1] is Echinochloa oryzacola Vasing. Put plainly: Test Example 2: herbicidal activity, application during weed generation in submerged conditions (symbol A). To be noted: Table 23; application herbicide amount 320 g/ha; grade 0-5 by criteria of Test Example 1. The method in brief: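 Read-out: herbicidal effect on each species rated on a visual scale 3 weeks after treatment. Plants were raised together from seed in flooded alluvial soil (4 cm water) at 25° C. to 30° C. and treated at one to two leaves by water-surface application of diluted emulsion.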

The test system of another data set is Leptochloa chinensis. Put plainly: Test Example 3: herbicidal effect by foliage application, Wagner pot (symbol D). To be noted: application herbicide amount 320 g/ha. The method in brief: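 Scoring took place 3 weeks after application, using fixed criteria. Plants had been raised from seed for 14 days at 25 to 30 °C in submerged alluvial soil before a diluted emulsion of the test compound was sprayed uniformly on the leaves.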

Data set [2] relates to Setaria viridis. Kind of data set: Test Example 4: herbicidal effect by soil treatment (symbol G). The gist of the method: (§1)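 Seeds were sown in sterilized diluvial soil, covered with about 1.5 cm of soil, and the soil surface was sprayed with a water-diluted emulsion of the compound at a predetermined rate. Plants grew in a greenhouse at 25° C. to 30° C.; effects were scored visually 3 weeks after application.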

The test system of a further data set is Amaranthus retroflexus. Put plainly: Test Example 4: herbicidal effect by soil treatment (symbol N). The method in brief: as §1
The test system of data set [3] is wheat. Put plainly: Test Example 4: effect on crop by soil treatment (symbol e). To be noted: for e: wheat, effect on crop grade: application herbicide amount 320 g/ha. The gist of the method: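 Soil-treatment setup: crop and weed seeds were spot-sown into sterilized diluvial soil, then buried beneath approximately 1.5 cm of it, and the boxes were housed in a 25–30° C. greenhouse.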

For data set [4], the system named is Setaria viridis. Kind of data set: Test Example 5: herbicidal effect by foliage application, plastic box (symbol G). To be noted: 320 g/ha, 3 weeks after application. The gist of the method:
(§2)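 Post-emergence spray; diluvial soil (sterilized), ~1.5 cm seed cover; greenhouse 25–30° C; 14-day-old plants; water-diluted emulsion at predetermined dose; visual score at 3 wk post-treatment.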

A further data set deals with Alopecurus myosuroides. Kind of data set: Test Example 5: herbicidal effect by foliage application, plastic box (symbol J). To be noted: 320 g/ha, 3 weeks after application. The gist of the method:
as §2

In the next data set the test system is Chenopodium album. Put plainly: Test Example 5: herbicidal effect by foliage application, plastic box (symbol O). To be noted: 320 g/ha, 3 weeks after application. The gist of the method:
as §2

Another data set has as its system corn. Kind of data set: Test Example 5: effect on crop by foliage application, plastic box (symbol c). To be noted: 320 g/ha, 3 weeks after application. The gist of the method: (§3)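 Greenhouse culture at 25° C. to 30° C. followed spot-like sowing into sterilized diluvial soil, with seed covered by roughly 1.5 cm of soil.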
The next data set has as its system rice plant. Kind of data set: Test Example 5: effect on crop by foliage application, plastic box (symbol b). To be noted: 320 g/ha, 3 weeks after application. The method in brief: as §3
Data set [5] relates to wheat. Kind of data set: Test Example 5: effect on crop by foliage application, plastic box (symbol e). To be noted: 320 g/ha, 3 weeks after application. The method in brief:
as §3

Another data set relates to beet. Kind of data set: Test Example 5: effect on crop by foliage application, plastic box (symbol f). To be noted: 320 g/ha, 3 weeks after application. The method in brief: as §3
Where [6] appears, read: application herbicide amount 320 g/ha.

In the case of `CON=C(C)CC1CC(O)=C(c2c(C)cc(-c3ccc(Cl)cc3)cc2C)C1=O` (mixture of isomers) [6-029], the “Herbicidal effect grade, A: Echinochloa oryzacola Vasing.” value in data set [1] is on record as 5 (Herbicidal ratio of 90% or more (almost completely withered)). Also, in the data set on Leptochloa chinensis, the “herbicidal effect on D (Leptochloa chinensis), grade 0-5” value (from here on “herbicidal effect on D”) is listed as 5 (Herbicidal ratio of 90% or more (almost completely withered)). Moreover, the “G: Setaria viridis, herbicidal effect grade” value in the data set with Setaria viridis [2] (setting [6]) and in the data set with Setaria viridis [4] was 5 (Herbicidal ratio of 90% or more (almost completely withered)) each time. In the data set on Amaranthus retroflexus (setting [6]), the “N: Amaranthus retroflexus, herbicidal effect grade” value (“N: Amaranthus retroflexus” for short) is recorded as 0 (Herbicidal ratio of 5% or lower (almost no effect)). Also, the “e: wheat, effect on crop grade” value in the data set on wheat [3] is 4 (Herbicidal ratio of 70% or higher and lower than 90%); with wheat [5], 5 (Herbicidal ratio of 90% or more (almost completely withered)). For the same compound, in the data set with Alopecurus myosuroides, the “J: Alopecurus myosuroides, herbicidal effect grade” value is on record as 5 (Herbicidal ratio of 90% or more (almost completely withered)). In addition, the “O: Chenopodium album, herbicidal effect grade” value with Chenopodium album is 4 (Herbicidal ratio of 70% or higher and lower than 90%). For the same compound, the “c: corn, effect on crop grade” value in the data set on corn is given as 5 (Herbicidal ratio of 90% or more (almost completely withered)). Also, in the data set on rice plant, the “b: directly sowed rice plant, effect on crop grade” value is given as 5 (Herbicidal ratio of 90% or more (almost completely withered)). Besides, the “f: beet, effect on crop grade” value in the data set with beet is given as 0 (Herbicidal ratio of 5% or lower (almost no effect)).
Regarding `CON=C(C)CC1CC(OC(=O)c2ccccc2OC(F)(F)F)=C(c2c(C)cc(C)cc2C)C1=O` (stereo not drawn) [1-155], the “Herbicidal effect grade, A: Echinochloa oryzacola Vasing.” value in data set [1] is 5 (Herbicidal ratio of 90% or more (almost completely withered)). For the same compound, the “herbicidal effect on D” value with Leptochloa chinensis was 5 (Herbicidal ratio of 90% or more (almost completely withered)). In addition, in the data set with Setaria viridis [2] (320 g/ha), the “G: Setaria viridis, herbicidal effect grade” value is listed as 5 (Herbicidal ratio of 90% or more (almost completely withered)). For the same compound, the “N: Amaranthus retroflexus” value in the data set on Amaranthus retroflexus (320 g/ha) was 5 (Herbicidal ratio of 90% or more (almost completely withered)). In addition, in the data set with wheat [3] (320 g/ha), the “e: wheat, effect grade on crop” value is 3 (Herbicidal ratio of 40% or higher and lower than 70%). Further, in the data set with Setaria viridis [4], the “G: Setaria viridis, herbicidal effect (criteria 0-5)” value was 5 (Herbicidal ratio of 90% or more (almost completely withered)). In addition, the “J: Alopecurus myosuroides, herbicidal effect (criteria 0-5)” value with Alopecurus myosuroides is 5 (Herbicidal ratio of 90% or more (almost completely withered)). In addition, the “O: Chenopodium album, herbicidal effect (criteria 0-5)” value in the data set with Chenopodium album is on record as 0 (Herbicidal ratio of 5% or lower (almost no effect)). In addition, the “c: corn, effect on crop (criteria 0-5)” value with corn is 4 (Herbicidal ratio of 70% or higher and lower than 90%). Also, the “b: directly sowed rice plant, effect on crop (criteria 0-5)” value in the data set on rice plant is reported as 5 (Herbicidal ratio of 90% or more (almost completely withered)). Further, the “e: wheat, effect on crop (criteria 0-5)” value with wheat [5] is 5 (Herbicidal ratio of 90% or more (almost completely withered)). In addition, the “f: beet, effect on crop (criteria 0-5)” value in the data set with beet is 2 (Herbicidal ratio of 20% or higher and lower than 40%).
Regarding `CON=C(C)CC1CC(O)=C(c2c(C)cc(OCC(F)(F)F)cc2C)C1=O` (stereo not drawn) [6-049], the “Herbicidal effect grade, A: Echinochloa oryzacola Vasing.” value in data set [1] is 5 (Herbicidal ratio of 90% or more (almost completely withered)). Further, in the data set on Leptochloa chinensis, the “herbicidal effect on D” value is 5 (Herbicidal ratio of 90% or more (almost completely withered)). For the same compound, the “G: Setaria viridis, herbicidal effect grade” value with Setaria viridis [2] (setting [6]) and with Setaria viridis [4] was 5 (Herbicidal ratio of 90% or more (almost completely withered)) in each case. In the data set on Amaranthus retroflexus (setting [6]), the “N: Amaranthus retroflexus” value is 4 (Herbicidal ratio of 70% or higher and lower than 90%). In addition, the “e: wheat, effect on crop grade” value in the data set on wheat [3] and with wheat [5] was 5 (Herbicidal ratio of 90% or more (almost completely withered)) in each case. In the data set with Alopecurus myosuroides, the “J: Alopecurus myosuroides, herbicidal effect grade” value is given as 5 (Herbicidal ratio of 90% or more (almost completely withered)). Moreover, the “O: Chenopodium album, herbicidal effect grade” value in the data set with Chenopodium album is on record as 5 (Herbicidal ratio of 90% or more (almost completely withered)). Further, the “c: corn, effect on crop grade” value with corn is recorded as 5 (Herbicidal ratio of 90% or more (almost completely withered)). Further, in the data set with rice plant, the “b: directly sowed rice plant, effect on crop grade” value is recorded as 5 (Herbicidal ratio of 90% or more (almost completely withered)). Besides, the “f: beet, effect on crop grade” value in the data set on beet was 4 (Herbicidal ratio of 70% or higher and lower than 90%).
Take `CCCC(=O)C(C(=O)OC)C1CC(O)=C(c2c(C)cc(C)cc2C)C1=O` (stereo not drawn) [2-020]: the “Herbicidal effect grade, A: Echinochloa oryzacola Vasing.” value in data set [1] was 1 (Herbicidal ratio of 5% or higher and lower than 20%). Moreover, the “herbicidal effect on D” value with Leptochloa chinensis was 2 (Herbicidal ratio of 20% or higher and lower than 40%). Further, the “G: Setaria viridis, herbicidal effect grade” value in the data set on Setaria viridis [2] (setting [6]) and in the data set with Setaria viridis [4] was 5 (Herbicidal ratio of 90% or more (almost completely withered)) throughout. For the same compound, the “N: Amaranthus retroflexus” value in the data set on Amaranthus retroflexus (setting [6]) is 1 (Herbicidal ratio of 5% or higher and lower than 20%). The “e: wheat, effect on crop grade” value in the data set on wheat [3] and in the data set on wheat [5] was 0 (Herbicidal ratio of 5% or lower (almost no effect)) each time. The “J: Alopecurus myosuroides, herbicidal effect grade” value in the data set on Alopecurus myosuroides is 4 (Herbicidal ratio of 70% or higher and lower than 90%). The “O: Chenopodium album, herbicidal effect grade” value in the data set with Chenopodium album is recorded as 0 (Herbicidal ratio of 5% or lower (almost no effect)). For the same compound, in the data set with corn, the “c: corn, effect on crop grade” value was 1 (Herbicidal ratio of 5% or higher and lower than 20%). For the same compound, the “b: directly sowed rice plant, effect on crop grade” value in the data set on rice plant is 4 (Herbicidal ratio of 70% or higher and lower than 90%). In addition, in the data set on beet, the “f: beet, effect on crop grade” value is on record as 0 (Herbicidal ratio of 5% or lower (almost no effect)).
Consider `CON=C(C)C1CC(O)=C(c2c(C)cc(C)cc2C)C1=O` (mixture of isomers) [3-002], for which, in data set [1], the “Herbicidal effect grade, A: Echinochloa oryzacola Vasing.” value is on record as 0 (Herbicidal ratio of 5% or lower (almost no effect)). Further, the “herbicidal effect on D” value in the data set with Leptochloa chinensis was 0 (Herbicidal ratio of 5% or lower (almost no effect)). In addition, the “G: Setaria viridis, herbicidal effect grade” value with Setaria viridis [2] (setting [6]) is 0 (Herbicidal ratio of 5% or lower (almost no effect)); in the data set with Setaria viridis [4] it was 2 (Herbicidal ratio of 20% or higher and lower than 40%). In addition, in the data set with Amaranthus retroflexus (setting [6]), the “N: Amaranthus retroflexus” value was 0 (Herbicidal ratio of 5% or lower (almost no effect)). For the same compound, the “e: wheat, effect on crop grade” value in the data set with wheat [3] and with wheat [5] was 0 (Herbicidal ratio of 5% or lower (almost no effect)) throughout. Further, the “J: Alopecurus myosuroides, herbicidal effect grade” value with Alopecurus myosuroides is listed as 0 (Herbicidal ratio of 5% or lower (almost no effect)). Moreover, the “O: Chenopodium album, herbicidal effect grade” value in the data set with Chenopodium album is listed as 0 (Herbicidal ratio of 5% or lower (almost no effect)). In the data set with corn, the “c: corn, effect on crop grade” value was 0 (Herbicidal ratio of 5% or lower (almost no effect)). Besides, in the data set on rice plant, the “b: directly sowed rice plant, effect on crop grade” value is 3 (Herbicidal ratio of 40% or higher and lower than 70%). In the data set on beet, the “f: beet, effect on crop grade” value is given as 0 (Herbicidal ratio of 5% or lower (almost no effect)).
